Experimental data taken from patent US20150118306A1, “COMPOSITIONS COMPRISING SULFORAPHANE OR A SULFORAPHANE PRECURSOR AND A MILK THISTLE EXTRACT OR POWDER” (Nutramax Laboratories, Inc., priority 2012, published 2015).

Columns and labels:
myrosinase [1] = test: Equimolar conversion of glucoraphanin to sulforaphane by myrosinase, HPLC (Example 4); assay type: biochemical, broccoli
Description: A two-part experiment was conducted to further elucidate the role of ascorbic acid in modulating myrosinase activity. […] A control sample contained no ascorbic acid, and the enzymatic conversion proceeded unassisted by a co-factor. PART 1. […] PART 2. While keeping the amount of broccoli seed extract fixed at 250 mg, the concentration of ascorbic acid was varied from 0.4 mmol/Liter to 3.8 mmol/Liter.

myrosinase [2] = test: Conversion of glucoraphanin to sulforaphane in simulated intestinal fluid (Example 5); assay type: biochemical, broccoli; conditions: 38° C., ascorbic acid 0.25 to 1.00 mmol/Liter, 2 hours, FIG. 4
Description: Simulated Intestinal Fluid (SIF) powder, a commercially supplied concentrate closely approximating the human intestinal content in terms of composition, pH and ionic strength, was used. The experiment utilized a USP Dissolution Apparatus 2 (paddles), where into six dissolution vessels 500 mL of Simulated Intestinal Fluid was dispensed, along with 150 mg of freeze-dried broccoli sprout powder as a source of myrosinase. […] Aliquots were withdrawn every 15 minutes, and assayed for sulforaphane.

HepG2 cells = test: Glutathione levels in HepG2 cell lysates, o-phthalaldehyde fluorescence (Example 6); assay type: cell-based, human; conditions: alone or combined
Description: The following study was conducted to determine the effect of the combination of sulforaphane and silibinin on glutathione levels. Glutathione plays an important role in the body, as it can serve as an antioxidant, detoxifier, and immunity enhancer. Decreased levels of glutathione can cause a patient to be susceptible to oxidative stress, illness, and cancer. Therefore, an increase in glutathione levels is a beneficial effect.
In the study, the human liver cancer cell line, HepG2 cells were treated with DMSO (vehicle control), sulforaphane (SFN), silibinin (Silib), or the combination of sulforaphane and silibinin, for 24 hours. Cell lysates were collected and glutathione levels were measured using o-phthalaldehyde (OPT) as a fluorescent reagent. FIG. 5 and FIG. 6 show the results of the study.
In Part 1 of the study, the effect of 0.5 μM SFN was compared to various concentrations of silibinin and to the combination of 0.5 μM SFN and silibinin at various concentrations. […] An increase in glutathione levels is a beneficial effect. The results are depicted in FIG. 5.
In Part 2 of the study, the effect of 2 μM SFN was compared to various concentrations of silibinin and to the combination of 2 μM SFN and silibinin at various concentrations. […] An increase in glutathione levels is a beneficial effect to detoxify cells. The results are depicted in FIG. 6.

heme oxygenase-1 (HO-1) = conditions: oral administration; mammary epithelium; Sprague-Dawley rats; cited from earlier work
mammary tumors = conditions: Sprague-Dawley rats; cited from earlier work
[3] = test system: NAD(P)H:quinine oxidoreductase (NQO1); conditions: oral administration; mammary epithelium; Sprague-Dawley rats; cited from earlier work

Structure (SMILES)	Modulatory effect of increasing ascorbic acid concentration on myrosinase activity (myrosinase [1]; Part 2: 250 mg broccoli seed extract, ascorbic acid 0.4 to 3.8 mmol/Liter)	Yield of sulforaphane versus ascorbic acid concentration (myrosinase [2])	Glutathione levels compared to DMSO (vehicle) control (HepG2 cells; Part 1, 24 hours: 0.5 μM SFN, 100, 200, 300 μM Silib, FIG. 5)	Glutathione levels compared to the control (HepG2 cells; Part 2, 24 hours: 2 μM SFN, 100, 300 μM Silib, FIG. 6)	Elevated immunostaining of HO-1 enzyme (heme oxygenase-1 (HO-1)) [fold]	Formation of mammary tumors (mammary tumors)	Stoichiometry of enzymatic conversion of glucoraphanin to sulforaphane (myrosinase [1]; control sample without ascorbic acid)	Increase in NQO1 enzymatic activity [3] [fold]
O=C1O[C@H]([C@@H](O)CO)C(O)=C1O [Ascorbic Acid, ascorbic acid]	linear, increase in myrosinase-promoted conversion of glucoraphanin to sulforaphane is observed to about 2 mmol/L	direct correlation between larger yield of sulforaphane and higher concentrations of ascorbic acid						
C[S+]([O-])CCCCN=C=S (stereo not drawn) [sulforaphane, 1-isothiocyanato-4-methylsulfinylbutane]			remained the same	remained the same	4	effective in blocking the formation of mammary tumors		
C[S+]([O-])CCCC/C(=N\OS(=O)(=O)O)S[C@@H]1O[C@H](CO)[C@@H](O)[C@H](O)[C@H]1O (stereo partly drawn) [glucoraphanin, 1-S-[(1E)-5-(methylsulfinyl)-N-(sulfonatooxy)pentanimidoyl]-1-thio-β-D-glucopyranose]					4		equimolar conversion of glucoraphanin to sulforaphane	3
